The source made the active and inactive calls.
Tests used:
[1] = THP-1 cell cytotoxicity, dose response, cytotoxicity control for non-replicating M. tuberculosis project (AID 489025); assay type: functional
[2] = Vero E6 cell cytotoxicity, dose response, cytotoxicity control for non-replicating M. tuberculosis project, secondary assay (AID 492998); assay type: functional, VeroE6; conditions: Vero C1008
[3] = system: HEK293; assay: inhibition of NOD1-driven NF-kB reporter – cell-based, luminescence, uHTS, primary screen (AID 1578); assay type: functional; conditions: Homo sapiens
[4] = system: HEK293; assay: cells; assay type: functional, cell-based; conditions: Homo sapiens
[5] = system: HEK293; assay: cells; assay type: functional, cell-based; conditions: Homo sapiens; remark: listed apart in the source
[6] = HepG2 cell cytotoxicity, dose response, cytotoxicity control for non-replicating M. tuberculosis project (AID 489018); assay type: functional; conditions: Mycobacterium tuberculosis
[7] = blockers of HIV-1 ZM109 envelope-driven cell-cell fusion – HeLa effector, CEM target cells, luciferase, cherry-pick, dose response (AID 652058); assay type: functional, cell-based;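 also: luciferase signal from HIV-1 Env mediated cell-cell fusion of effector and target cells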
[8] = off-target signal loss in HeLa-CEM21 co-culture – HeLa F-luc CTL cells, cherry-picked, counter-screen for HIV-1 Env fusion inhibitor project, dose response (AID 652040); assay type: functional, cell-based;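 also: potency for signal decrease marking cytotoxic or nonspecific inhibition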
[9] = target: G-protein coupled receptor 55 (Homo sapiens, UniProt Q9Y2T6); assay: inhibition of LPI-stimulated GPR55 beta-arrestin translocation – imaging, U2OS, beta-arrestin-GFP, LPI agonist, primary screen (AID 2013); assay type: functional;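 also: antagonist potency measured as reduced agonist-driven arrestin aggregation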
G-protein coupled receptor 55, sequence (Q9Y2T6 whole entry): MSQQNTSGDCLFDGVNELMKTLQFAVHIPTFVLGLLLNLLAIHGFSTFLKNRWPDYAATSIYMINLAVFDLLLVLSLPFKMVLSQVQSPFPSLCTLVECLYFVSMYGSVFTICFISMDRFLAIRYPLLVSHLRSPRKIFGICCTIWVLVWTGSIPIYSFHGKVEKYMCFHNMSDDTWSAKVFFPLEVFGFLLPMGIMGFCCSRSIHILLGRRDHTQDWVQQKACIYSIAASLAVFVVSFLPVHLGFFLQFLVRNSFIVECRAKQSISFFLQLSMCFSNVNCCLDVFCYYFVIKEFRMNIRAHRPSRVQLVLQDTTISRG

[10] = NIH3T3 cell viability loss – ATP luminescence, mouse fibroblasts, counter-screen, dose response (AID 2010); assay type: functional, cell-based;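 also: cells exposed to compound for about 90 hours before reading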
[11] = viability loss in CEM21 cells – cell-based, CellTiter-Glo luminescence, cherry-picked, cytotoxicity control for viral fusion inhibitor project, dose response (AID 652042); assay type: functional;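 also: potency for signal decrease meaning cytotoxicity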
[12] = HIV-1 AD8 envelope cell-cell fusion blockers – cherry-pick, dose response (AID 652062); assay type: functional, cell-based;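 also: luciferase signal from cell-cell fusion driven by HIV-1 clade B AD8 Env; potency is for inhibitors of fusion seen as a drop in luminescence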
[13] = cells; assay type: functional
[14] = system: INS1; assay: INS-1E survival protection against cytokine death – cell-based, luminescence, retest, dose response (AID 449756); assay type: functional; conditions: Rattus norvegicus;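 also: cell death triggered by IL-1 beta plus TNF-alpha plus IFN-gamma mixture; protective hits raise ATP signal compared with cytokine alone wells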
[15] = Trypanosoma cruzi growth suppression in host cells – NIH3T3 host cells, beta-gal luminescence, confirmation (AID 2044); assay type: functional, cell-based;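 also: intracellular parasites grown in NIH/3T3 mouse fibroblasts as host cells; luminescent beta-galactosidase reporter signal from transgenic T. cruzi replicating inside host cells; inhibitors lower the luminescence signal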
[16] = target: Neurotensin receptor type 1 (Homo sapiens, UniProt P30989); assay type: functional;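 also: Image-based confirmatory dose-response assay measuring agonist activity at NTR1; NTR1-expressing U2OS osteosarcoma cells imaged for beta-arrestin GFP spot formation; agonist potency where compounds increase beta-arrestin recruitment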
Neurotensin receptor type 1, sequence (P30989 whole entry): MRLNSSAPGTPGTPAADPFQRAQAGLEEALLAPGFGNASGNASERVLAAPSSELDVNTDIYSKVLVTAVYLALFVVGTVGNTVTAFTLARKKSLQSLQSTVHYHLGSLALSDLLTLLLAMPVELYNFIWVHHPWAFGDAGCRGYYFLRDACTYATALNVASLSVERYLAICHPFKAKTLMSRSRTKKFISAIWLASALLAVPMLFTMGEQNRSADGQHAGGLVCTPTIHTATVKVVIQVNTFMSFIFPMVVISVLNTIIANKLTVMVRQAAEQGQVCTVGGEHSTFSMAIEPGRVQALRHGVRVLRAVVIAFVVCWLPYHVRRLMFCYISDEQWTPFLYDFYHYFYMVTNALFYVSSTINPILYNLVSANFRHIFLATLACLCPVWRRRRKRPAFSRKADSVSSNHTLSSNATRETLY

[17] = Luminescence Cell-Based Dose Retest to Confirm Inhibitors of Cancer Stem Cells. [Related pubchem assays (depositor defined):AID2717, AID2721]; assay type: functional; conditions: Homo sapiens
[18] = blockers of HIV-1 envelope-mediated cell-cell fusion – cherry-pick, dose response (AID 652057); assay type: functional, cell-based
[19] = target: T1, Beta-lactamase (Pseudomonas aeruginosa, UniProt Q79MP6); assay: […] counterscreen for selective VIM-2 inhibitors: dose response biochemical high throughput screening assay to identify inhibitors of IMP-1 metallo-beta-lactamase.
T1 sequence (Q79MP6 whole entry): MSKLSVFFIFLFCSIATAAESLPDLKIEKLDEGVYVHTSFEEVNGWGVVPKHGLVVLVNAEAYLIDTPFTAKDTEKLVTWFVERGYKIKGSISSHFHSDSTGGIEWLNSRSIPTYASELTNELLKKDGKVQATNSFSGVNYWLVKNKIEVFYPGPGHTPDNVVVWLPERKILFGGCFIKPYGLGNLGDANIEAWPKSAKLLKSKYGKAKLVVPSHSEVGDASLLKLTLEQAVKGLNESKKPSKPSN

[20] = target: Beta-lactamase (Salmonella choleraesuis (strain SC-B67), UniProt Q5J463); assay: Epi-absorbance-based counterscreen for selective VIM-2 inhibitors: dose response biochemical high throughput screening assay to identify inhibitors of TEM-1 serine-beta-lactamase.
Beta-lactamase (Salmonella choleraesuis (strain SC-B67), UniProt Q5J463), sequence (Q5J463 whole entry): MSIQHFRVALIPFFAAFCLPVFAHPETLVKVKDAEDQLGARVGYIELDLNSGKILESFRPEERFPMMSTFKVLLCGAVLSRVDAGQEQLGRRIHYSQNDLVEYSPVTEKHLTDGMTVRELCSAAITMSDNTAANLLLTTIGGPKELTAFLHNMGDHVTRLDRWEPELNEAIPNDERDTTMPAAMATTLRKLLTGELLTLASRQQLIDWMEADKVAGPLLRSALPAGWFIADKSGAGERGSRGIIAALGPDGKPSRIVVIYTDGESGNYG

[21] = target: T1, Beta-lactamase; assay: inhibition of IMP-1 beta-lactamase activity – biochemical, epi-absorbance, selectivity assay for VIM-2 inhibitor project, dose response (AID 1920)
[22] = target: DNA dC->dU-editing enzyme APOBEC-3A (Homo sapiens, UniProt P31941); assay: A3A deaminase inhibition for selectivity – biochemical, dose response (AID 504722); assay type: functional
DNA dC->dU-editing enzyme APOBEC-3A, sequence (P31941 whole entry): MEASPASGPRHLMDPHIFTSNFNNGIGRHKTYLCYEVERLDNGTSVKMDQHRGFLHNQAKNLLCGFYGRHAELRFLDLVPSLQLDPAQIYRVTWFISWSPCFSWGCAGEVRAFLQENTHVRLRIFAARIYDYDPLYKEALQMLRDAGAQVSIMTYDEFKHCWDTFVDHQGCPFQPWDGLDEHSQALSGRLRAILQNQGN

[23] = target: DNA dC->dU-editing enzyme APOBEC-3G (Homo sapiens, UniProt Q9HC16); assay: Dose Response confirmation of small molecule APOBEC3G DNA Deaminase Inhibitors via a fluorescence-based single-stranded DNA deaminase assay. [Related pubchem assays (depositor defined):AID493012, AID493028]; assay type: functional
DNA dC->dU-editing enzyme APOBEC-3G, sequence (Q9HC16 whole entry): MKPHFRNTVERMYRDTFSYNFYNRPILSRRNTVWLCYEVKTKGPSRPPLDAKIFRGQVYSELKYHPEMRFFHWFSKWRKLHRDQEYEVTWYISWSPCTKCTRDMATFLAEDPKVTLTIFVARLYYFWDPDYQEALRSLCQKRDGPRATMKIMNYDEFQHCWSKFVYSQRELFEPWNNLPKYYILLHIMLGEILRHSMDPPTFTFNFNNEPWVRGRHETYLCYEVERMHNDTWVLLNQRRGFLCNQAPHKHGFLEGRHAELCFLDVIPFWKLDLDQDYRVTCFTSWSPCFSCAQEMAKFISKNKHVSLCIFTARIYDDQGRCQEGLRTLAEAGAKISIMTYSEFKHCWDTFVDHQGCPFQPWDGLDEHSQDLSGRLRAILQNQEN

In the case of `CN(C)S(=O)(=O)Oc1ccc(C(=O)Nc2cccc(C(F)(F)F)c2)cc1`, the CC50 [1] is reported as > 40 µM (active), the CC50 [2] is reported as > 20 µM (active) and the EC50 [3] is reported as 10.9 µM (active). For the same compound, the IC50 [4] was 6.71 µM (active), the IC50 [5] was 12.1 µM (active) and the CC50 [6] was > 20 µM (active).
In the case of `CC(NCC(O)COCCC12CC3CC(CC(C3)C1)C2)c1ccccc1` (stereo not drawn), the CC50 [1] is reported as 12.5 µM (active), the AC50 [7] is reported as 11.2 µM (active) and the AC50 [8] is reported as 6.93 µM (active). The CC50 [2] was 13.7 µM (active), the IC50 [9] was 3.25 µM (active) and the EC50 [10] was > 60 µM (not active). For the same compound, the AC50 [11] was 13.3 µM (active), the AC50 [12] was 16.8 µM (active) and the IC50 [13] was 14.6 µM (active). The AC50 [14] was 7.3 µM (active), the EC50 [15] was 0.157 µM (active) and the EC50 [16] was 19.9 µM (active). For the same compound, the AC50 [17] was 6.14 µM (active), the CC50 [6] was 12.7 µM (active) and the AC50 [18] was 3.45 µM (active).
With `Sc1nnc(-c2cccs2)n1C1CCCCC1` the IC50 [19] was > 59.6 µM (inactive), the IC50 [20] was > 59.6 µM (inactive) and the IC50 [21] was > 59.6 µM (inactive). For the same compound, the IC50 [22] was > 100 µM (inactive) and the IC50 [23] was 4.59 µM (active).
With `Cc1cc(-c2nnc(S)n2/N=C/c2ccc(C)s2)[nH]n1` the IC50 [22] was > 100 µM (inactive) and the IC50 [23] was 2.28 µM (active).

From ChEMBL document CHEMBL1201862, “PubChem BioAssay data set” (2004)
